This is an account of results in patent US5373014A, “Rapamycin oximes” (American Home Products Corporation, priority 1993, dated 1994).

Structures are written as SMILES. “And” between values parts separate entries of the source, which are not always exact repeats. Identical values can stand only once. Like-named read-outs stand apart in the source and are kept apart here.

One may read the IC50 as the concentration that inhibits the measured activity by half. One may read the half-life as how long it takes for the measured level to halve.

For data set [1], the system named is cells from the thymus of normal BALB/c mice (lymphocyte proliferation). Kind of data set: comitogen-induced thymocyte proliferation procedure (LAF). In kind it is cell-based. To be noted: read-out: LAF IC50. The protocol: (§1) Immunosuppressive activity for representative compounds of this invention was evaluated in an in vitro standard pharmacological test procedure to measure lymphocyte proliferation (LAF) and in an in vivo standard pharmacological test procedure which evaluated the survival time of a pinch skin graft.
Briefly, cells from the thymus of normal BALB/c mice are cultured for 72 hours with PHA and IL-1 and pulsed with tritiated thymidine during the last six hours. […] Cells are harvested and incorporated radioactivity is determined. Inhibition of lymphoproliferation is assessed as percent change in counts per minute from nondrug treated controls. For each compound evaluated, rapamycin was also evaluated for the purpose of comparison. An IC50 was obtained for each test compound as well as for rapamycin. […] The results obtained are provided as an IC50.

Data set [2] has as its system pinch skin graft from male BALB/c donors transplanted to male C3 H(H-2K) recipients. The experiment in a line: survival time of pinch skin graft (allograft). In kind it is in vivo, male C3 H(H-2K) recipients (mice). To be noted: 4 mg/kg, intraperitoneally or orally; untreated controls rejected within 6-7 days. How it is done:
as §1
Representative compounds of this invention were also evaluated in an in vivo test procedure designed to determine the survival time of pinch skin graft from male BALB/c donors transplanted to male C3 H(H-2K) recipients. The method is adapted from Billingham R. E. and Medawar P. B., J. Exp. Biol. 28:385-402, (1951 ). Briefly, a pinch skin graft from the donor was grafted on the dorsum of the recipient as a allograft, and an isograft was used as control in the same region. The recipients were treated with either varying concentrations of test compounds intraperitoneally or orally. Rapamycin was used as a test control. Untreated recipients serve as rejection control. The graft was monitored daily and observations were recorded until the graft became dry and formed a blackened scab. This was considered as the rejection day. The mean graft survival time (number of days±S.D.) of the drug treatment group was compared with the control group. […] Results are expressed as the mean survival time in days. Untreated (control) pinch skin grafts are usually rejected within 6-7 days. […]

Data set [3] in a line: stability under physiological conditions (degradative hydrolysis in phosphate buffer). The class given is physicochemical. How it is done: The table below provides the […] in 0.1M phosphate buffer (pH 7.4) at 37° C.
The mark [4] stands for this setting: Mus musculus, Lymphocyte, 72 h culture with PHA and IL-1, tritiated thymidine during last six hours.
[5] abbreviates: 72 h culture with PHA and IL-1, tritiated thymidine during last six hours.

`CO[C@H]1C[C@@H]2CC[C@@H](C)[C@@](O)(O2)C(=O)C(=O)N2CCCC[C@H]2C(=O)O[C@H]([C@H](C)C[C@@H]2CC[C@@H](OC(=O)CC[C@H](NC(=O)OC(C)(C)C)C(=O)OC(C)(C)C)[C@H](OC)C2)C/C(=N/OCC#N)[C@H](C)/C=C(\C)[C@@H](O)[C@@H](OC)C(=O)[C@H](C)C[C@H](C)/C=C/C=C/C=C/1C` [Example 3, Rapamycin (Z)-27-O-(cyanomethyl)-oxime, 42-ester with N-(tert-butoxycarbonyl)-α-O-(tert-butyl)-L-glutamic Acid]: the IC50 in data set [1] (setting [4]) is 432 nM. Same read-out and setting: under `CO/N=C1/C[C@@H]([C@H](C)C[C@@H]2CC[C@@H](OC(=O)CN(C)C)[C@H](OC)C2)OC(=O)[C@@H]2CCCCN2C(=O)C(=O)[C@]2(O)O[C@@H](CC[C@H]2C)C[C@H](OC)/C(C)=C/C=C/C=C/[C@@H](C)C[C@@H](C)C(=O)[C@H](OC)[C@H](O)/C(C)=C/[C@H]1C` [Example 7, Rapamycin (Z)-27-(O-methoxime), 42-ester with 2-N,N-dimethylglycine] stands 291 nM; under `CO/N=C1/C[C@@H]([C@H](C)C[C@@H]2CC[C@@H](OC(=O)COCC(=O)OCc3ccccc3)[C@H](OC)C2)OC(=O)[C@@H]2CCCCN2C(=O)C(=O)[C@]2(O)O[C@@H](CC[C@H]2C)C[C@H](OC)/C(C)=C/C=C/C=C/[C@@H](C)C[C@@H](C)C(=O)[C@H](OC)[C@H](O)/C(C)=C/[C@H]1C` [Example 8, Rapamycin (Z)-27-(O-methoxime), 42-ester with (5-benzyloxycarbonylmethoxy) acetic acid], 421 nM.

In the case of `CO/N=C1\C[C@@H]([C@H](C)C[C@@H]2CC[C@@H](OC(=O)Oc3ccc([N+](=O)[O-])cc3)[C@H](OC)C2)OC(=O)[C@@H]2CCCCN2C(=O)C(=O)[C@]2(O)O[C@@H](CC[C@H]2C)C[C@H](OC)/C(C)=C/C=C/C=C/[C@@H](C)C[C@@H](C)C(=O)[C@H](OC)[C@H](O)/C(C)=C/[C@H]1C` [Example 9, Rapamycin (E)-27-(O-methoxime), 42-ester with (4-nitrophenoxy)carbonic acid], the IC50 in data set [1] (setting [5]) amounted to 47 nM; in data set [1] (setting [4]), 77 nM. Consider `CO/N=C1/C[C@@H]([C@H](C)C[C@@H]2CC[C@@H](OC(=O)CC[C@H](NC(=O)OC(C)(C)C)C(=O)OC(C)(C)C)[C@H](OC)C2)OC(=O)[C@@H]2CCCCN2C(=O)C(=O)[C@]2(O)O[C@@H](CC[C@H]2C)C[C@H](OC)/C(C)=C/C=C/C=C/[C@@H](C)C[C@@H](C)C(=O)[C@H](OC)[C@H](O)/C(C)=C/[C@H]1C` [Example 10, Rapamycin (Z)-27-(O-methoxime), 42-ester with (S)-5-tertbutoxy-4-tertbutoxycarbonylamino-5-oxo-pentanoic acid], for which, in data set [1] (setting [4]), the IC50 came out at 4.1 nM. For the same compound, in data set [2], the “Skin Graft mean survival time (days ± SD)” value is 10.0 ± 0.2 days and 11.2 ± 0.8 days. This compound gave a half-life in data set [3] (0.1m phosphate buffer, pH 7.4) of 264 h. The “stability toward degradation compared with rapamycin or the corresponding oxime or ester alone” value in data set [3] (pH 7.4) is reported as “significantly more stable toward degradation than rapamycin, or the corresponding oxime or ester alone”. In the case of `CO/N=C1\C[C@@H]([C@H](C)C[C@@H]2CC[C@@H](OC(=O)CC[C@H](NC(=O)OC(C)(C)C)C(=O)OC(C)(C)C)[C@H](OC)C2)OC(=O)[C@@H]2CCCCN2C(=O)C(=O)[C@]2(O)O[C@@H](CC[C@H]2C)C[C@H](OC)/C(C)=C/C=C/C=C/[C@@H](C)C[C@@H](C)C(=O)[C@H](OC)[C@H](O)/C(C)=C/[C@H]1C` [Example 11, Rapamycin (E)-27-(O-methoxime), 42-ester with (S)-5-tertbutoxy-4-tertbutoxycarbonylamino-5-oxo-pentanoic acid], the IC50 in data set [1] (setting [5]) is 321 nM; in data set [1] (setting [4]), 372 nM. For `CO/N=C1\C[C@@H]([C@H](C)C[C@@H]2CC[C@@H](O)[C@H](OC)C2)OC(=O)[C@@H]2CCCCN2C(=O)C(=O)[C@]2(O)O[C@@H](CC[C@H]2C)C[C@H](OC)/C(C)=C/C=C/C=C/[C@@H](C)C[C@@H](C)C(=O)[C@H](OC)[C@H](O)/C(C)=C/[C@H]1C` [Rapamycin (E)-27-(O-methoxime), rapamycin (E)-27-(O-methoxime)], the half-life in data set [3] (0.1m phosphate buffer, pH 7.4) was 59 h. Still for that read-out and setting: next, `CO/N=C1/C[C@@H]([C@H](C)C[C@@H]2CC[C@@H](O)[C@H](OC)C2)OC(=O)[C@@H]2CCCCN2C(=O)C(=O)[C@]2(O)O[C@@H](CC[C@H]2C)C[C@H](OC)/C(C)=C/C=C/C=C/[C@@H](C)C[C@@H](C)C(=O)[C@H](OC)[C@H](O)/C(C)=C/[C@H]1C` [Rapamycin (Z)-27-(O-methoxime), rapamycin (Z)-27-(O-methoxime)]: 156 h. As to `CO[C@H]1C[C@@H]2CC[C@@H](C)[C@@](O)(O2)C(=O)C(=O)N2CCCC[C@H]2C(=O)O[C@H]([C@H](C)C[C@@H]2CC[C@@H](O)[C@H](OC)C2)CC(=O)[C@H](C)/C=C(\C)[C@@H](O)[C@@H](OC)C(=O)[C@H](C)C[C@H](C)/C=C/C=C/C=C/1C` [Rapamycin], the IC50 in data set [1] (Mus musculus, Lymphocyte) lay in the range of 0.4 to 5.1 nM. Further, in data set [2], the “Skin Graft mean survival time (days ± SD)” value was found to be 12.0 ± 1.7 days. In data set [3] (0.1M phosphate buffer (pH 7.4) at 37° C., read-out: Half Life (converted)), the half-life is 13 h. In turn, `CO[C@H]1C[C@@H]2CC[C@@H](C)[C@@](O)(O2)C(=O)C(=O)N2CCCC[C@H]2C(=O)O[C@H]([C@H](C)C[C@@H]2CC[C@@H](OC(=O)CC[C@H](NC(=O)OC(C)(C)C)C(=O)OC(C)(C)C)[C@H](OC)C2)CC(=O)[C@H](C)/C=C(\C)[C@@H](O)[C@@H](OC)C(=O)[C@H](C)C[C@H](C)/C=C/C=C/C=C/1C` [rapamycin 42-ester with (S)-5-tertbutoxy-4-tertbutoxycarbonylamino-5-oxo-pentanoic acid, reference compound] showed a half-life in data set [3] (0.1m phosphate buffer, pH 7.4) of 24 h.
